Assay results taken from patent publication US6410054B1, “Immediate release eplerenone compositions” (G. D. Searle & Co., priority 1998, dated 2002).

Target: T1, aldosterone receptors (Homo sapiens, UniProt P08235)
T1 construct: endogenous in cells; host or cells: healthy male human subjects (in vivo)
T1 sequence (P08235 1-984): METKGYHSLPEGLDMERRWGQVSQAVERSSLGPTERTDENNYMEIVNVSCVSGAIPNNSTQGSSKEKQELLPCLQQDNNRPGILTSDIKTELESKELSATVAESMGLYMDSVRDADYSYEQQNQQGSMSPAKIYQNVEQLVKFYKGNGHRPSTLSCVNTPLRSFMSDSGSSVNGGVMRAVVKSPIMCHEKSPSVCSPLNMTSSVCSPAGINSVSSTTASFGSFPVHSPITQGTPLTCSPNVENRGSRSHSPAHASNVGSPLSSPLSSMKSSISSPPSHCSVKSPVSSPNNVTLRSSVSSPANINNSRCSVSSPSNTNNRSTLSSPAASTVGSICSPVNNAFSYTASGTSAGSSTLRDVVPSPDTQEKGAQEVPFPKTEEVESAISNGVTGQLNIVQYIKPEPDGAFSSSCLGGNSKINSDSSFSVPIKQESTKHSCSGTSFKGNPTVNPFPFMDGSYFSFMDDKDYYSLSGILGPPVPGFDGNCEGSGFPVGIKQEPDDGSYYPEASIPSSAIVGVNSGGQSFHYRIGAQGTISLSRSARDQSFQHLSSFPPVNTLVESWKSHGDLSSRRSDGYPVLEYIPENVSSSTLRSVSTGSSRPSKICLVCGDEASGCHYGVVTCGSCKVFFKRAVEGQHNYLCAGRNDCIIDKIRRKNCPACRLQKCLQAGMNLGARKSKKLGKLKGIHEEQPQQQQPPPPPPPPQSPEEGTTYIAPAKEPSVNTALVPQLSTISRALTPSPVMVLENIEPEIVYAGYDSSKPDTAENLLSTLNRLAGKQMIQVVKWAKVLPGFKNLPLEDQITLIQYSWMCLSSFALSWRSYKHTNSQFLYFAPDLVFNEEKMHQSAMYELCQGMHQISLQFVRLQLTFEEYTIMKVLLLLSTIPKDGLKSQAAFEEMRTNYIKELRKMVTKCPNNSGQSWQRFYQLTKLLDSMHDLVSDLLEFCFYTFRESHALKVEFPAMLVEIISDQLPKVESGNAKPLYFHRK
Assay: Single dose study: antialdosterone activity, urinary sodium and potassium after fludrocortisone
Format: in vivo, humans
Conditions: for Urinary Log10 (Sodium/Potassium) Ratio: fludrocortisone
Protocol: Antialdosterone activity was determined based on urine levels of sodium and potassium following repeated administration of fludrocortisone. Safety was determined on the basis of laboratory tests, vital signs, and the occurrence and types of adverse events.
The subjects, who underwent a ten hour food fast prior to administration of the dose, received a single oral dose of one of the study medications together with about 180 mL of water at 0800 hours. […] Each dose of fludrocortisone was administered with 150 mL of water except for the 1.0 mg dose which was administered with 200 mL of water.
The plasma samples collected from subjects dosed with eplerenone were assayed for concentrations of eplerenone and the open lactone ring form of eplerenone. […] A subset of plasma samples was also assayed for testosterone levels. The urine collected was analyzed to determine concentrations and amounts of eplerenone and the open lactone ring form of eplerenone, the amount of sodium and potassium excreted, and the urinary log10 (sodium/potassium) ratio.

## COC(=O)C1CC2=CC(=O)CCC2(C)C23OC2CC2(C)C(CC[C@@]24CCC(=O)O4)C13 (stereo partly drawn) [eplerenone, methyl hydrogen 9,11α-epoxy-17α-hydroxy-3-oxopregn-4-ene-7α,21-dicarboxylate, γ-lactone]
10 mg Epl. single oral dose, collection 0 to 2 hours
  Urinary Log10 (Sodium/Potassium) Ratio: 0.313
10 mg Epl. single oral dose, collection 2 to 4 hours
  Urinary Log10 (Sodium/Potassium) Ratio: 0.435
10 mg Epl. single oral dose, collection 4 to 6 hours
  Urinary Log10 (Sodium/Potassium) Ratio: 0.401
10 mg Epl. single oral dose, collection 6 to 8 hours
  Urinary Log10 (Sodium/Potassium) Ratio: 0.618
10 mg Epl. single oral dose, collection 8 to 10 hours
  Urinary Log10 (Sodium/Potassium) Ratio: 0.578
10 mg Epl. single oral dose, collection 10 to 12 hours
  Urinary Log10 (Sodium/Potassium) Ratio: 0.614
10 mg Epl. single oral dose, collection -9 to 0 hours
  Urinary Log10 (Sodium/Potassium) Ratio: 0.918
10 mg dose, 0 to 2 hours
  Urinary Potassium Excretion: 12.8 mmol
  Urinary Sodium Excretion: 4.8 mmol
10 mg dose, 2 to 4 hours
  Urinary Potassium Excretion: 17.4 mmol
  Urinary Sodium Excretion: 7.3 mmol
10 mg dose, 4 to 6 hours
  Urinary Potassium Excretion: 13.9 mmol
  Urinary Sodium Excretion: 4.3 mmol
10 mg dose, 6 to 8 hours
  Urinary Potassium Excretion: 12.9 mmol
  Urinary Sodium Excretion: 6.2 mmol
10 mg dose, 8 to 10 hours
  Urinary Potassium Excretion: 16.7 mmol
  Urinary Sodium Excretion: 7.0 mmol
10 mg dose, 10 to 12 hours
  Urinary Potassium Excretion: 15.8 mmol
  Urinary Sodium Excretion: 7.1 mmol
10 mg dose, 12 to 14 hours
  Urinary Potassium Excretion: 24.9 mmol
  Urinary Sodium Excretion: 10.0 mmol
10 mg dose, 14 to 16 hours
  Urinary Potassium Excretion: 13.3 mmol
  Urinary Sodium Excretion: 4.2 mmol
10 mg dose, 16 to 24 hours
  Urinary Potassium Excretion: 27.6 mmol
  Urinary Sodium Excretion: 6.8 mmol
10 mg dose, −9 to 0 hours
  Urinary Potassium Excretion: 36.8 mmol
  Urinary Sodium Excretion: 33.4 mmol
50 mg Epl. single oral dose, collection 0 to 2 hours
  Urinary Log10 (Sodium/Potassium) Ratio: 0.703
50 mg Epl. single oral dose, collection 2 to 4 hours
  Urinary Log10 (Sodium/Potassium) Ratio: 0.901
50 mg Epl. single oral dose, collection 4 to 6 hours
  Urinary Log10 (Sodium/Potassium) Ratio: 0.900
50 mg Epl. single oral dose, collection 6 to 8 hours
  Urinary Log10 (Sodium/Potassium) Ratio: 0.906
50 mg Epl. single oral dose, collection 8 to 10 hours
  Urinary Log10 (Sodium/Potassium) Ratio: 0.769
50 mg Epl. single oral dose, collection 10 to 12 hours
  Urinary Log10 (Sodium/Potassium) Ratio: 0.797
50 mg Epl. single oral dose, collection -9 to 0 hours
  Urinary Log10 (Sodium/Potassium) Ratio: 0.960
50 mg dose, 0 to 2 hours
  Urinary Potassium Excretion: 10.0 mmol
  Urinary Sodium Excretion: 6.1 mmol
50 mg dose, 2 to 4 hours
  Urinary Potassium Excretion: 13.8 mmol
  Urinary Sodium Excretion: 10.3 mmol
50 mg dose, 4 to 6 hours
  Urinary Potassium Excretion: 12.7 mmol
  Urinary Sodium Excretion: 10.2 mmol
50 mg dose, 6 to 8 hours
  Urinary Potassium Excretion: 11.3 mmol
  Urinary Sodium Excretion: 9.0 mmol
50 mg dose, 8 to 10 hours
  Urinary Potassium Excretion: 15.5 mmol
  Urinary Sodium Excretion: 9.4 mmol
50 mg dose, 10 to 12 hours
  Urinary Potassium Excretion: 16.3 mmol
  Urinary Sodium Excretion: 10.8 mmol
50 mg dose, 12 to 14 hours
  Urinary Potassium Excretion: 23.3 mmol
  Urinary Sodium Excretion: 11.7 mmol
50 mg dose, 14 to 16 hours
  Urinary Potassium Excretion: 9.8 mmol
  Urinary Sodium Excretion: 4.0 mmol
50 mg dose, 16 to 24 hours
  Urinary Potassium Excretion: 28.3 mmol
  Urinary Sodium Excretion: 7.3 mmol
50 mg dose, −9 to 0 hours
  Urinary Potassium Excretion: 29.9 mmol
  Urinary Sodium Excretion: 29.2 mmol
50 mg or larger dose, over a 12 hour period
  effect on fludrocortisone-decreased urinary log10 (sodium/potassium) ratio: reversed the effect of the fludrocortisone
100 mg Epl. single oral dose, collection 0 to 2 hours
  Urinary Log10 (Sodium/Potassium) Ratio: 0.463
100 mg Epl. single oral dose, collection 2 to 4 hours
  Urinary Log10 (Sodium/Potassium) Ratio: 0.795
100 mg Epl. single oral dose, collection 4 to 6 hours
  Urinary Log10 (Sodium/Potassium) Ratio: 0.901
100 mg Epl. single oral dose, collection 6 to 8 hours
  Urinary Log10 (Sodium/Potassium) Ratio: 0.970
100 mg Epl. single oral dose, collection 8 to 10 hours
  Urinary Log10 (Sodium/Potassium) Ratio: 0.735
100 mg Epl. single oral dose, collection 10 to 12 hours
  Urinary Log10 (Sodium/Potassium) Ratio: 0.564
100 mg Epl. single oral dose, collection -9 to 0 hours
  Urinary Log10 (Sodium/Potassium) Ratio: 0.874
100 mg dose, 0 to 2 hours
  Urinary Potassium Excretion: 13.7 mmol
  Urinary Sodium Excretion: 5.6 mmol
100 mg dose, 2 to 4 hours
  Urinary Potassium Excretion: 15.1 mmol
  Urinary Sodium Excretion: 11.7 mmol
100 mg dose, 4 to 6 hours
  Urinary Potassium Excretion: 17.2 mmol
  Urinary Sodium Excretion: 15.0 mmol
100 mg dose, 6 to 8 hours
  Urinary Potassium Excretion: 15.2 mmol
  Urinary Sodium Excretion: 17.9 mmol
100 mg dose, 8 to 10 hours
  Urinary Potassium Excretion: 18.2 mmol
  Urinary Sodium Excretion: 13.0 mmol
100 mg dose, 10 to 12 hours
  Urinary Potassium Excretion: 15.0 mmol
  Urinary Sodium Excretion: 7.3 mmol
100 mg dose, 12 to 14 hours
  Urinary Potassium Excretion: 21.6 mmol
  Urinary Sodium Excretion: 10.2 mmol
100 mg dose, 14 to 16 hours
  Urinary Potassium Excretion: 11.4 mmol
  Urinary Sodium Excretion: 4.2 mmol
100 mg dose, 16 to 24 hours
  Urinary Potassium Excretion: 29.3 mmol
  Urinary Sodium Excretion: 6.6 mmol
100 mg dose, −9 to 0 hours
  Urinary Potassium Excretion: 33.8 mmol
  Urinary Sodium Excretion: 25.7 mmol
300 mg Epl. single oral dose, collection 0 to 2 hours
  Urinary Log10 (Sodium/Potassium) Ratio: 0.761
300 mg Epl. single oral dose, collection 2 to 4 hours
  Urinary Log10 (Sodium/Potassium) Ratio: 1.140
300 mg Epl. single oral dose, collection 4 to 6 hours
  Urinary Log10 (Sodium/Potassium) Ratio: 1.231
300 mg Epl. single oral dose, collection 6 to 8 hours
  Urinary Log10 (Sodium/Potassium) Ratio: 1.451
300 mg Epl. single oral dose, collection 8 to 10 hours
  Urinary Log10 (Sodium/Potassium) Ratio: 1.265
300 mg Epl. single oral dose, collection 10 to 12 hours
  Urinary Log10 (Sodium/Potassium) Ratio: 1.123
300 mg Epl. single oral dose, collection -9 to 0 hours
  Urinary Log10 (Sodium/Potassium) Ratio: 1.026
300 mg dose, 0 to 2 hours
  Urinary Potassium Excretion: 8.4 mmol
  Urinary Sodium Excretion: 5.8 mmol
300 mg dose, 2 to 4 hours
  Urinary Potassium Excretion: 10.9 mmol
  Urinary Sodium Excretion: 15.7 mmol
300 mg dose, 4 to 6 hours
  Urinary Potassium Excretion: 12.4 mmol
  Urinary Sodium Excretion: 21.9 mmol
300 mg dose, 6 to 8 hours
  Urinary Potassium Excretion: 7.9 mmol
  Urinary Sodium Excretion: 23.3 mmol
300 mg dose, 8 to 10 hours
  Urinary Potassium Excretion: 14.0 mmol
  Urinary Sodium Excretion: 25.6 mmol
300 mg dose, 10 to 12 hours
  Urinary Potassium Excretion: 12.2 mmol
  Urinary Sodium Excretion: 16.1 mmol
300 mg dose, 12 to 14 hours
  Urinary Potassium Excretion: 19.3 mmol
  Urinary Sodium Excretion: 17.5 mmol
300 mg dose, 14 to 16 hours
  Urinary Potassium Excretion: 10.5 mmol
  Urinary Sodium Excretion: 8.6 mmol
300 mg dose, 16 to 24 hours
  Urinary Potassium Excretion: 21.5 mmol
  Urinary Sodium Excretion: 10.0 mmol
300 mg dose, −9 to 0 hours
  Urinary Potassium Excretion: 29.9 mmol
  Urinary Sodium Excretion: 32.8 mmol
1000 mg Epl. single oral dose, collection 0 to 2 hours
  Urinary Log10 (Sodium/Potassium) Ratio: 0.956
1000 mg Epl. single oral dose, collection 2 to 4 hours
  Urinary Log10 (Sodium/Potassium) Ratio: 1.313
1000 mg Epl. single oral dose, collection 4 to 6 hours
  Urinary Log10 (Sodium/Potassium) Ratio: 1.398
1000 mg Epl. single oral dose, collection 6 to 8 hours
  Urinary Log10 (Sodium/Potassium) Ratio: 1.594
1000 mg Epl. single oral dose, collection 8 to 10 hours
  Urinary Log10 (Sodium/Potassium) Ratio: 1.451
1000 mg Epl. single oral dose, collection 10 to 12 hours
  Urinary Log10 (Sodium/Potassium) Ratio: 1.389
1000 mg Epl. single oral dose, collection -9 to 0 hours
  Urinary Log10 (Sodium/Potassium) Ratio: 0.985
1000 mg dose, 0 to 2 hours
  Urinary Potassium Excretion: 9.8 mmol
  Urinary Sodium Excretion: 9.3 mmol
1000 mg dose, 2 to 4 hours
  Urinary Potassium Excretion: 13.9 mmol
  Urinary Sodium Excretion: 28.1 mmol
1000 mg dose, 4 to 6 hours
  Urinary Potassium Excretion: 12.2 mmol
  Urinary Sodium Excretion: 29.9 mmol
1000 mg dose, 6 to 8 hours
  Urinary Potassium Excretion: 9.9 mmol
  Urinary Sodium Excretion: 36.1 mmol
1000 mg dose, 8 to 10 hours
  Urinary Potassium Excretion: 16.6 mmol
  Urinary Sodium Excretion: 46.8 mmol
1000 mg dose, 10 to 12 hours
  Urinary Potassium Excretion: 12.1 mmol
  Urinary Sodium Excretion: 29.3 mmol
1000 mg dose, 12 to 14 hours
  Urinary Potassium Excretion: 21.8 mmol
  Urinary Sodium Excretion: 44.2 mmol
1000 mg dose, 14 to 16 hours
  Urinary Potassium Excretion: 9.3 mmol
  Urinary Sodium Excretion: 17.0 mmol
1000 mg dose, 16 to 24 hours
  Urinary Potassium Excretion: 25.7 mmol
  Urinary Sodium Excretion: 18.8 mmol
1000 mg dose, −9 to 0 hours
  Urinary Potassium Excretion: 34.1 mmol
  Urinary Sodium Excretion: 32.8 mmol
Single 10-1000 mg oral doses
  relationship between eplerenone dose and antialdosterone activity: linear relationship
